Assay: Cell proliferation (trypan blue) assay in HeLa cells
Type: cell-based
Conditions: human, read-out: reduction in cell viability
Method: 200,000 PBMC cells were seeded in a plate (12 well) overnight and treated with 2 mg/mL blank F2 NPs and 150 μL of lipofectamine. After 24 h, cells were stained with trypan blue dye and total live cells were determined by cell counter (Bio-Rad, USA). For cytotoxicity assay in HeLa cells, 50,000 HeLa cells were seeded in plates (24 well) and treated with paclitaxel (PTX) F2 NPs for 24 h, and cell viability was measured by staining with trypan blue dye.

CC(=O)O[C@H]1C(=O)[C@@]2(C)[C@H]([C@H](OC(=O)c3ccccc3)[C@]3(O)C[C@H](OC(=O)[C@H](O)[C@@H](NC(=O)c4ccccc4)c4ccccc4)C(C)=C1C3(C)C)[C@]1(OC(C)=O)CO[C@@H]1C[C@@H]2O [PTX suspension, paclitaxel]
cytotoxicity at 24 h: 17%

Source: US20240350421A1, “Cationic Polymeric Nanoparticles and Their Uses in Treating Diseases” (University of Connecticut, priority 2021, published 2024)
